In article PMC6657668, “Porcine Beta-Defensin 2 Provides Protection Against Bacterial Infection by a Direct Bactericidal Activity and Alleviates Inflammation via Interference With the TLR4/NF-κB Pathway” (Frontiers in Immunology, 2019):
Where a SMILES comes first, the peptide text is derived from it.

How the values were obtained:
[1] = test system: RAW 264.7 cells; experiment: Cytokine levels of RAW 264.7 cells after treatment with S. Typhimurium (ELISA); type: cell-based, mouse; details: S. Typhimurium MOI = 10:1, 1 h, n = 6
Method: RAW 264.7 cells and RAW 264.7 cells stably expressing PBD-2 were pre-treated with S. Typhimurium at MOI = 10:1 for 1 h or with LPS (1 μg/ml) for 16 h, washed with PBS twice and incubated with RPMI 1640 that contained PBS or PBD-2 (10 μg/mL) for 16 h. RAW 264.7 cells stably expressing PBD-2 were maintained in RPMI 1640 that contained PBS for 16 h (n = 6 for each group). The expression levels of proinflammatory cytokines in the cell culture supernatant were determined through ELISA in accordance with the manufacturer's instruction.

[2] = test system: NF-κB p65; experiment: Western blot of p65 and p-p65 in RAW 264.7 cells; type: cell-based, mouse
Method: (§1) RAW 264.7 cells were treated with LPS (1 μg/ml) alone or together with PBD-2 (10 μg/mL). After 6 h, the cells were lysed, and inflammatory proteins were detected through Western blot. Proteins were firstly analyzed with SDS-PAGE and then electro-transferred onto a PVDF (#ISEQ00010, Biosharp®, Beijing, China) membrane. The PVDF membrane was blocked with 1/100 bovine serum albumin (BSA, #V900933-100G, VETEC, Sigma-Aldrich®, St. Louis, MO, USA) at 10 μg/ml at 37°C for 2 h, washed with PBST five times, incubated with the antisera against p-p65 (# 3033), p65 (# 4764), p-ERK (# 4370), ERK (# 4695), p-p38 (# 4511), p38 (# 8690), p-JNK (# 4668), JNK (# 9258) (Cell Signaling Technology®, Danvers, MA, USA), and β-actin (# AA128, Beyotime®, Shanghai, China) at 2 μg/ml at 37°C for 2 h and washed five times again. The PVDF membrane was subsequently incubated with 1 μg/ml secondary antibody, namely, goat anti-rabbit IgG (# 7074S, Cell Signaling Technology®, Danvers, MA, USA), at 37°C for 2 h and washed five times. Lastly, immune-reactive bands were detected using an ECF Western blot system (Tanon 5200 Multi, Shanghai, China) and quantified using AlphaImager 2200 analysis software.

[3] = test system: ERK; experiment: Western blot of ERK and p-ERK in RAW 264.7 cells; type: cell-based, mouse; details: LPS 30 min with various concentrations of PBD-2 (Figure S4)
Method: as §1, with “[…] […]” for “RAW 264.7 cells were treated with LPS (1 μg/ml) alone or together with PBD-2 (10 μg/mL). After 6 h, the cells were lysed, and inflammatory proteins were detected through Western blot.”
Supplementary file Image_4.TIF: Figure S4 Effects of PBD-2 on ERK, p38, and JNK signaling pathways. Cells were treated with LPS for 30 min with or without various concentrations of PBD-2. The expression levels of ERK, p-ERK, p38, p-p38, JNK, p-JNK, and β-actin were examined by Western blot (A). The signal intensity of each band was quantified (B–D). Click here for additional data file.

[4] = test system: TLR4; experiment: Interaction of PBD-2 with TLR4 in RAW 264.7 cells, coimmunoprecipitation; type: binding, mouse; details: PBD-2 1, 10, 30, and 50 μg/ml, 16 h, captured with PBD-2 antisera
Method: A Co-IP assay was conducted using a Co-IP kit (# abs955, Absin®, Shanghai, China) in accordance with the manufacturer's instructions. In brief, RAW 264.7 cells were cultured in dishes of 10 cm in diameter. The cells (1 × 10^7) were treated with different concentrations of PBD-2 (1, 10, 30, and 50 μg/ml) for 16 h and lysed using a lysis buffer that contained protease inhibitors […]. The soluble faction of the cell lysate was collected after centrifugation at 14,000 × g at 4°C for 10 min. Afterwards, 2 μl of PBD-2 antisera (with titer 1:500,000) or 2 μl of mouse IgG antisera (# sc-2025, Santa Cruz®, CA, USA) as control were incubated with 200 μg of the cell lysate at 4°C for 12 h. Protein A/G beads (5 μl) were added and incubated at 4°C for 12 h. The precipitates with the immune complexes were collected by centrifugation at 12,000 × g at 4°C for 1 min. The beads were washed with a wash buffer. TLR4 in the precipitates was detected with Western blot by using an antibody against TLR4 (# sc-293072, Santa Cruz®, Santa Cruz, CA, USA).

[5] = PBD-2 expressed in TG mice, uninfected, n ≥ 6, vs WT
Method: After the mice were euthanized, blood samples of TG and WT mice were collected. Alanine aminotransferase, aspartate aminotransferase, albumin, globin, albumin/globin, total bilirubin, direct bilirubin, urea, creatinine, urea/creatinine, glucose, potassium, and sodium were analyzed using a blood routine analyser (Mindray, Shenzhen China). Their heart, liver, spleen, lung, kidney, brain and intestinal segments were harvested. The histological morphologies of the mice organs and the body and organ weights of male and female mice were characterized.
(B) Comparison of body weights between TG and WT mice. (C) Comparison of weight ratios of organs, including heart, liver, spleen, lung, kidney, and brain (organ weight/body weight) between TG and WT mice. Data are represented as means ± SD (WT, n ≥ 6; TG, n ≥ 6).

[6] = PBD-2 overexpressed in TG pigs; ref [16]; cited from earlier work
From the text: The antibiotic resistance of pathogenic bacteria has become a global threat ([30]). Defensins are natural peptides secreted by many species and implicated in resisting bacterial infection ([31]). PBD-2 is one of the defensins expressed in pigs. […] The invasion of S. Typhimurium can increase the expression of PBD-2 in porcine epithelial cells ([32]). […] PBD-2 also improves the growth perf ...

[7] = transgenic expression; ref [24]; cited from earlier work
[8] = PBD-2 expressed by RAW 264.7–PBD-2 cells

With `CC[C@H](C)[C@H](NC(=O)[C@@H]1CSSC[C@@H]2NC(=O)[C@@H]3CCCN3C(=O)[C@H](CO)NC(=O)[C@H](Cc3ccccc3)NC(=O)[C@H](CC(N)=O)NC(=O)[C@@H]3CSSC[C@H](NC(=O)[C@H]([C@@H](C)O)NC(=O)CNC(=O)[C@H](CCC(=O)O)NC(=O)[C@H]([C@@H](C)CC)NC(=O)[C@H](CCCNC(=N)N)NC(=O)[C@H](CC(N)=O)NC(=O)[C@H](Cc4ccccc4)NC(=O)[C@H](CC(C)C)NC(=O)[C@@H]4CCCN4C2=O)C(=O)N[C@@H](Cc2ccc(O)cc2)C(=O)N[C@@H](CO)C(=O)NCC(=O)N[C@@H](CCCCN)C(=O)N[C@@H](C)C(=O)N[C@@H](CCCCN)C(=O)N[C@@H](CSSC[C@H](NC(=O)[C@@H](NC(=O)[C@H](Cc2ccc(O)cc2)NC(=O)[C@H](Cc2c[nH]cn2)NC(=O)[C@@H](N)CC(=O)O)[C@@H](C)CC)C(=O)N[C@@H](C)C(=O)N[C@@H](CCCCN)C(=O)N[C@@H](CCCCN)C(=O)NCC(=O)NCC(=O)N[C@@H]([C@@H](C)O)C(=O)N3)C(=O)N1)C(=O)N[C@@H](CCCNC(=N)N)C(=O)O` [PBD-2, Porcine beta-defensin 2] (HELM PEPTIDE1{D.H.Y.I.C.A.K.K.G.G.T.C.N.F.S.P.C.P.L.F.N.R.I.E.G.T.C.Y.S.G.K.A.K.C.C.I.R}$PEPTIDE1,PEPTIDE1,5:R3-34:R3|PEPTIDE1,PEPTIDE1,12:R3-27:R3|PEPTIDE1,PEPTIDE1,17:R3-35:R3$$$V2.0; N-terminus and C-terminus assumed) the “level of IL-1β” value [1, 8] was “significantly lower in the RAW 264.7–PBD-2 cells than in the RAW 264.7 cells after S. Typhimurium treatment (p < 0.01)”, the “level of IL-6” value [1, 8] was “significantly lower in the RAW 264.7–PBD-2 cells than in the RAW 264.7 cells after S. Typhimurium treatment (p < 0.01)” and the “level of TNF-α” value [1, 8] was “significantly lower in the RAW 264.7–PBD-2 cells than in the RAW 264.7 cells after S. Typhimurium treatment (p < 0.01)”. For the same compound, the “secretion of IL-1β” value ([1]; synthetic PBD-2 10 μg/mL, 16 h) was “significantly inhibited the secretion of TNF-α, IL-6, and IL-1β after S. Typhimurium treatment (p < 0.05)”, the “secretion of IL-6” value ([1]; synthetic PBD-2 10 μg/mL, 16 h) was “significantly inhibited the secretion of TNF-α, IL-6, and IL-1β after S. Typhimurium treatment (p < 0.05)” and the “secretion of TNF-α” value ([1]; synthetic PBD-2 10 μg/mL, 16 h) was “significantly inhibited the secretion of TNF-α, IL-6, and IL-1β after S. Typhimurium treatment (p < 0.05)”. The “LPS-induced NF-κB p65 phosphorylation” value ([2]; LPS 1 μg/ml, PBD-2 10 μg/mL (legend: various concentrations), 6 h) was “suppress the LPS-induced NF-κB p65 phosphorylation”, the “activation of NF-κB by PBD-2 itself” value ([2]; PBD-2 without LPS (Figure 5D)) was “did not activate NF-κB” and the “LPS-induced phosphorylation of ERK” value [3] was “did not affect the LPS-induced phosphorylation of ERK, p38, and JNK”. For the same compound, the “coimmunoprecipitation of TLR4 with PBD-2” value [4] was “could react with the antibody against TLR4”, the “ratio of organ weight to total body weight” value ([5]; heart, liver, spleen, lung, kidney, brain) was “did not significantly differ from the WT mice in terms of body weight (Figure S1B) and the ratio of organ weight to total body weight” and the body weight [5] was “did not significantly differ from the WT mice in terms of body weight”. For the same compound, the “bactericidal activity of the serum of TG pigs” value [6] was “higher than that of WT pigs” and the “expression level of PBD-2 in the TG mice” value [7] was ≤ 10^4 ng/g tissue.
